In patent publication US20030186947A1, “Compounds having activity as inhibitors of cytochrome P450RAI” (priority 2000, published 2003):

What was measured:
Test in all cases: chimeric receptor transactivation assay
Format in all cases: cell-based
Conditions in all cases: value in parentheses
RARα = molecular target: T1, RARα (Homo sapiens, UniProt P10276)
T1 sequence (P10276 183-417 limits assumed): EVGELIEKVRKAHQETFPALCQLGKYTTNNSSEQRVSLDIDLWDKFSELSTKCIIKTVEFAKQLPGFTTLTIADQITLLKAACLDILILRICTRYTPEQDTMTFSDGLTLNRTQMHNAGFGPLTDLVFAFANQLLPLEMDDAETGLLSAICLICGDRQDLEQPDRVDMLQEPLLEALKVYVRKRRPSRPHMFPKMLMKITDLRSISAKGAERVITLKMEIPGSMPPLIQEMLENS
Excerpt: (§1) Assays described below measure the ability of a compound to bind to, and/or activate various retinoid receptor subtypes. When in these assays a compound binds to a given receptor subtype and activates the transcription of a reporter gene through that subtype, then the compound is considered an agonist of that receptor subtype. […] In the below described assays the ability of the compounds to bind to RARα, RARβ, RARγ, RXRα, RXRβ and RXRγ receptors, and the ability or inability of the compounds to activate transcription of a reporter gene through these receptor subtypes can be tested.
(§2) As far as specific assays are concerned, a chimeric receptor transactivation assay which tests for agonist-like activity in the RARα, RARβ, and RARγ, receptor subtypes, and which is based on work published by Feigner P. L. and Holm M (1989) Focus, 112 is described in detail in U.S. Pat. No. 5,455,265. The specification of U.S. Pat. No. 5,455,265 is hereby expressly incorporated by reference. The numeric results obtained with several preferred compounds of this invention in this assay are shown below in Table 1.
(§3) A holoreceptor transactivation assay and a ligand binding assay which measure the antagonist/agonist like activity of the compounds of the invention, or their ability to bind to the several retinoid receptor subtypes, respectively, are described in published PCT Application No. WO WO93/11755 (particularly on pages 30-33 and 37-41) published on Jun. 24, 1993, the specification of which is also incorporated herein by reference. A detailed experimental procedure for holoreceptor transactivations has been described by Heyman et al. Cell 68, 397-406, (1992); Allegretto et al. J. Biol. Chem. 268, 26625-26633, and Mangelsdorf et al. The Retinoids: Biology, Chemistry and Medicine, pp 319-349, Raven Press Ltd., New York, which are expressly incorporated herein by reference. The results obtained in this assay are expressed in EC50 numbers, as they are also in the chimeric receptor transactivation assay. The results of ligand binding assay are expressed in Kd numbers. (See Cheng et al. Biochemical Pharmacology Vol. 22 pp 3099-3108, expressly incorporated herein by reference.)

RARγ = molecular target: T2, RARγ (Homo sapiens, UniProt P13631)
T2 sequence (P13631 185-419 limits assumed): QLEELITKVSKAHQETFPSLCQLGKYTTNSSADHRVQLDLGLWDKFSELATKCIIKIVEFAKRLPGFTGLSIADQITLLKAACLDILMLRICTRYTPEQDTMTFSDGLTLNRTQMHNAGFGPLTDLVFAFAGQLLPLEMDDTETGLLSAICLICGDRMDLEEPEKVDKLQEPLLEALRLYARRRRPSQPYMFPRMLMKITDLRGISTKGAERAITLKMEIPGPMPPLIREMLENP
Excerpt: as §1, §2, §3

RARβ = molecular target: T3, RARβ (Homo sapiens, UniProt P10826)
T3 sequence (P10826 183-417 limits assumed): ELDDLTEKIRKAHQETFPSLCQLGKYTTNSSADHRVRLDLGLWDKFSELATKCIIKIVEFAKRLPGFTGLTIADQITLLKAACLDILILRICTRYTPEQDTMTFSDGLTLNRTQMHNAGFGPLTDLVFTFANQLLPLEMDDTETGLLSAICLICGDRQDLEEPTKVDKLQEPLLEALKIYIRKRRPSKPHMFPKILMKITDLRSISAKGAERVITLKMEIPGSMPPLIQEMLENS
Excerpt: as §1
as §2, with “reference.” for “reference. The numeric results obtained with several preferred compounds of this invention in this assay are shown below in Table 1.”
as §3, with “A detailed experimental procedure for holoreceptor transactivations has been described by Heyman et al. Cell 68, 397-406, (1992); Allegretto et al. J. Biol. Chem. 268, 26625-26633, and Mangelsdorf et al. The Retinoids: Biology, Chemistry and Medicine, pp 319-349, Raven Press Ltd., New York, which are expressly incorporated herein by reference.” left out

Compound: CN(C1CC1)C1CCC(C)(C)c2cc(C#Cc3ccc(C(=O)O)cc3)ccc21 (centres unmarked) [Compound 3, 4-[(5-Cyclopropyl-methyl-amino)-8,8-dimethyl-5,6,7,8-tetrahydro-naphthalene-2yl-ethynyl]-benzoic acid]
- RAR (EFFICACY) α (RARα): (28)
- RAR (EFFICACY) γ (RARγ): (52)
- RAR (EFFICACY) β (RARβ): (54)

Compound: CC1(C)CCC(=O)c2ccc(C#Cc3ccc(CC(=O)O)cc3)cc21 [Compound 5, 4-[(8,8-Dimethyl-5-oxo-5,6,7,8-tetrahydro-naphthalene-2-yl-ethynyl)-phenyl]-acetic acid]
- RAR (EFFICACY) β (RARβ): (36)

Compound: CN(C1CC1)C1CCC(C)(C)c2cc(C#Cc3ccc(CC(=O)O)cc3)ccc21 (centres unmarked) [Compound 8, 4-[(5-(Cyclopropyl-methyl-amino)-8,8-dimethyl-5,6,7,8-tetrahydro-naphthalene-2-yl-ethynyl)-phenyl]-acetic acid]
- RAR (EFFICACY) β (RARβ): (96)

Compound: CC1(C)CCC(=O)c2ccc(C#Cc3ccc(C(=O)O)c(F)c3)cc21 [Compound 10, 2-Fluoro-4-(8,8-dimethyl-5-oxo-5,6,7,8-tetrahydro-naphthalen-2yl-ethynyl)-benzoic acid]
- RAR (EFFICACY) α (RARα): (146)
- RAR (EFFICACY) γ (RARγ): (94)
- RAR (EFFICACY) β (RARβ): (86)

Compound: CN(C1CC1)C1CCC(C)(C)c2cc(C#Cc3ccc(C(=O)O)c(F)c3)ccc21 (centres unmarked) [Compound 13, 4-[5-(Cyclopropyl-methyl-amino)-8,8-dimethyl-5 6,7,8-tetrahydro-naphthalene-2-yl-ethynyl]-2-fluoro benzoic acid]
- RAR (EFFICACY) γ (RARγ): (9)
- RAR (EFFICACY) β (RARβ): (6.6)

Compound: CC1(C)CC2(CC2)Oc2ccc(C#Cc3ccc(C(=O)O)cc3)cc21 [Compound 40, Benzoic acid 4-[(3,4-dihydro-4,4-dimethylspiro[2H-1-benzopyran-2,1′-cyclopropane]-6-yl)ethynyl]-]
- RAR (EFFICACY) α (RARα): (207)
- RAR (EFFICACY) γ (RARγ): (140)
- RAR (EFFICACY) β (RARβ): (126)

Compound: CC1(C)CC2(CC2)Oc2ccc(C#Cc3ccc(C(=O)O)c(F)c3)cc21 [Compound 44, 2-Fluoro-benzoic acid, 4-[(3,4-dihydro-4,4-dimethylspiro[2H-1-benzopyran-2,1′-cyclopropane]-6-yl)ethynyl]-]
- RAR (EFFICACY) α (RARα): (138)
- RAR (EFFICACY) γ (RARγ): (116)
- RAR (EFFICACY) β (RARβ): (100)

Compound: COC1(c2ccc(C#Cc3ccc(C(=O)O)cc3)cc2)CC1 [Compound 69, 4-[4-(1-Methoxycyclopropyl)-phenylethynyl]-benzoic acid]
- RAR (EFFICACY) α (RARα): (10)
- RAR (EFFICACY) γ (RARγ): (31)
- RAR (EFFICACY) β (RARβ): (50)

Compound: CC(C)OC1(c2ccc(C#Cc3ccc(C(=O)O)cc3)cc2)CC1 [Compound 73, 4-[4-(1-Isopropoxycyclopropyl)-phenylethynyl]-benzoic acid]
- RAR (EFFICACY) γ (RARγ): (24)
- RAR (EFFICACY) β (RARβ): (39)

Compound: Cc1cc(C#Cc2ccc(C(=O)O)cc2)ccc1C1(OCc2ccccc2)CC1 [Compound 81, 4-[4-(l -Benzyloxycyclopropyl)-3-methyl-phenylethynyl]-benzoic acid]
- RAR (EFFICACY) γ (RARγ): (67)
- RAR (EFFICACY) β (RARβ): (80)

Compound: Cc1cc(C#Cc2ccc(C(=O)O)cc2)ccc1C1(OC(C)C)CC1 [Compound 85, 4-[4-(1-Isopropoxycyclopropyl)-3-methyl-phenylethynyl]-benzoic acid]
- RAR (EFFICACY) α (RARα): (60)
- RAR (EFFICACY) γ (RARγ): (65)
- RAR (EFFICACY) β (RARβ): (77)

Compound: Cc1cc(C#Cc2ccc(C(=O)O)cc2)ccc1C1(OCC(C)(C)C)CC1 [Compound 89, 4-[4-[1-(2,2-Dimethylpropyloxy)-cyclopropyl]-3-methyl-phenylethynyl]-benzoic acid]
- RAR (EFFICACY) α (RARα): (20)
- RAR (EFFICACY) γ (RARγ): (46)
- RAR (EFFICACY) β (RARβ): (50)

Compound: CCc1cc(C#Cc2ccc(C(=O)O)cc2)ccc1C1(OCc2ccccc2)CC1 [Compound 93, 4-[4-(1-Benzyloxycyclopropyl)-3-ethyl-phenylethynyl]-benzoic acid]
- RAR (EFFICACY) α (RARα): (114)
- RAR (EFFICACY) γ (RARγ): (55)
- RAR (EFFICACY) β (RARβ): (39)

Compound: CCCNC1(c2ccc(C#Cc3ccc(C(=O)O)cc3)cc2)CC1 [Compound 108, 4-[4-(1-Propylamino-cyclopropyl)-phenylethynyl]-benzoic acid]
- RAR (EFFICACY) α (RARα): (15)
- RAR (EFFICACY) γ (RARγ): (10)
- RAR (EFFICACY) β (RARβ): (36)

Compound: CCCN(CCC)C1(c2ccc(C#Cc3ccc(C(=O)O)cc3)cc2)CC1 [Compound 110, 4-[4-(1-Dipropylamino-cyclopropyl)-phenylethynyl]-benzoic acid]
- RAR (EFFICACY) γ (RARγ): (42)
- RAR (EFFICACY) β (RARβ): (44)

Compound: O=C(O)c1ccc(C#Cc2ccc(C3(NCc4ccccc4)CC3)cc2)cc1 [Compound 112, 4-[4-(1-Benzylamino-cyclopropyl)-phenylethynyl]-benzoic acid]
- RAR (EFFICACY) β (RARβ): (37)
